Measured values published in PubChem BioAssay AID2060359 (Molecular Pharmacology Branch, DTP, NCI, 2025).

Test system: 276233-004-R-J1-PDC spheroids with HUVEC/MSC, viability
Assay: Anticancer human tumor 276233-004-R-J1-PDC patient-derived colon adenocarcinoma cell line growth inhibition [TAK]
Settings: for viability, T/C: stronger effect = lower value
From the text: Combinatorial screen of targeted agents with TAK-243 and ipatasertib in multi-cell type tumor spheroids
A high-throughput screen of multi-cell type tumor spheroids was designed to identify active combinations of targeted small molecules and TAK-243 or ipatasertib. Complex spheroids include a stromal component modeled by human endothelial cells (HUVEC) and fibroblasts modeled by human mesenchymal stem cells (MSCs). The concentration ranges selected for each drug and investigational agent were based upon clinically achievable concentrations if the clinical Cmax of the agent was known.
Compounds. The drugs and investigational agents: TAK-243 (785004), ipatasertib (767898), everolimus (733504), selumetinib (741078), bortezomib (756655), trametinib (758246), ixazomib (758254), vemurafenib (761431), dabrafenib (764134), sapanisertib (764658), alpelisib (765974), and copanlisib (816437), were obtained from the National Cancer Institute (NCI) Developmental Therapeutics Program Chemical Repository. The FDA-approved anticancer drug set is available from the NCI Developmental Therapeutics Program. […] The stock solutions were prepared in dimethyl sulfoxide (DMSO, Sigma-Aldrich, St. Louis, MO, cat. D2650) at 800-fold the tested concentration and stored at -70 degrees C prior to their use. All drugs and investigational agents were tested over a range starting from a high concentration at or near the clinical Cmax and decreasing in half-log increments. If the clinical Cmax for an agent had not been determined, the highest concentration tested was 10 microM.
NCI60 Cell Culture. NCI60 cell lines were obtained from the NCI Developmental Therapeutics Program Tumor Repository. For each lot of cells, the Repository performed Applied Biosystems AmpFLSTR Identifiler testing with PCR amplification to confirm consistency with the published Identifier STR profile for each cell line. Cells were kept in continuous culture for no more than 20 passages. The optimal seeding densities for each of the cell lines at each time point assessed were determined prior to performing the concentration response studies. Briefly, the NCI60 human tumor lines were grown as monolayers in RPMI 1640 medium supplemented with 10% FBS and 2 mmol/L L-glutamine.
An additional 2 lines were from the NCI60 cell line panel including melanomas, MALME-3M and SK-MEL-2. Pooled donor human umbilical vein endothelial cells (HUVEC, Lonza, cat. CC-2519) and human mesenchymal stem cells (hMSC, Lonza, cat. PT-2501) were purchased from Lonza (Walkersville, MD).
PDMR cell lines were grown in complete medium (DC medium): Dulbecco's modified Eagle's medium (DMEM)/F12 supplemented with 5% fetal bovine serum (FBS), 2 mM L-glutamine, 100 U/mL penicillin and 100 µg/ml streptomycin, 0.4 µg/ml hydrocortisone, 10 ng/ml epidermal growth factor (EGF) recombinant human protein, 24 µg/mL adenine, and 0.1 mg/mL primocin. During culture from frozen stock vials, PDMR cells were cultured in the same medium containing 10 µM Y-27632 (see Table 3). The PDCs were cultured in complete DMEM/F12 media without 10 microM Y-27632 dihydrochloride for at least two passages prior to the screen. The pooled donor HUVEC and hMSC were cultured in endothelial cell growth medium 2 (PromoCell, Heidelberg, Germany, cat. C-22011) and mesenchymal stem cell growth medium 2 (PromoCell, cat. C-28009), respectively. For all experiments, HUVEC and hMSC were used at passages </=5.
For the pre-screen, cell seeding densities were determined from a titration spanning the range from 5,000 to 313 cells per well. The mct-spheroids including 60% malignant cells, 25% HUVEC and 15% MSC dispensed as a mixture into U-bottom Ultra-Low Attachment 384-well plates (Corning, NY)
High-throughput Drug Combination Screening.
Prior to their inoculation into 384-well plates, malignant cells, HUVEC, and hMSC were removed from T flasks using TrypLE express (Thermo Fisher Scientific, cat. 12605036) and harvested by centrifugation for 5 min at 233 x g. […]

[1] = curve of first compound, second compound 0.3 µM
[2] = curve of first compound, second compound 0.949 µM
[3] = curve of first compound, second compound 3 µM
[4] = curve of first compound, second compound 9.49 µM
[5] = curve of first compound, second compound 30 µM
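Also: spheroids exposed to drugs for seven days before the viability read.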

Cn1cnc2c(F)c(Nc3ccc(Br)cc3Cl)c(C(=O)NOCCO)cc21 + CC(C)NCC(C(=O)N1CCN(c2ncnc3c2C(C)CC3O)CC1)c1ccc(Cl)cc1
IC50 [1]: 462 nM | IC50 [2]: 361 nM | IC50 [3]: 145 nM | IC50 [4]: 63.8 nM | IC50 [5]: 9.49 nM | viability, T/C (second compound 0.3 µM, first compound 0.00949 µM): 79.5% | viability, T/C (second compound 0.3 µM, first compound 0.03 µM): 82.8% | viability, T/C (second compound 0.3 µM, first compound 0.0949 µM): 65.4% | viability, T/C (second compound 0.3 µM, first compound 0.3 µM): 52% | viability, T/C (second compound 0.3 µM, first compound 0.949 µM): 49.8% | viability, T/C (second compound 0.3 µM, first compound 3 µM): 38.5% | viability, T/C (second compound 0.949 µM, first compound 0.00949 µM): 73.6% | viability, T/C (second compound 0.949 µM, first compound 0.03 µM): 68.5% | viability, T/C (second compound 0.949 µM, first compound 0.0949 µM): 57.9% | viability, T/C (second compound 0.949 µM, first compound 0.3 µM): 52.2% | viability, T/C (second compound 0.949 µM, first compound 0.949 µM): 43.1% | viability, T/C (second compound 0.949 µM, first compound 3 µM): 33.3% | viability, T/C (second compound 3 µM, first compound 0.00949 µM): 67.2% | viability, T/C (second compound 3 µM, first compound 0.03 µM): 61.1% | viability, T/C (second compound 3 µM, first compound 0.0949 µM): 54.4% | viability, T/C (second compound 3 µM, first compound 0.3 µM): 42% | viability, T/C (second compound 3 µM, first compound 0.949 µM): 39.7% | viability, T/C (second compound 3 µM, first compound 3 µM): 31.4% | viability, T/C (second compound 9.49 µM, first compound 0.00949 µM): 64% | viability, T/C (second compound 9.49 µM, first compound 0.03 µM): 57.1% | viability, T/C (second compound 9.49 µM, first compound 0.0949 µM): 45.6% | viability, T/C (second compound 9.49 µM, first compound 0.3 µM): 40.4% | viability, T/C (second compound 9.49 µM, first compound 0.949 µM): 32.7% | viability, T/C (second compound 9.49 µM, first compound 3 µM): 28.9% | viability, T/C (second compound 30 µM, first compound 0.00949 µM): 50.1% | viability, T/C (second compound 30 µM, first compound 0.03 µM): 45.2% | viability, T/C (second compound 30 µM, first compound 0.0949 µM): 42.5% | viability, T/C (second compound 30 µM, first compound 0.3 µM): 52% | viability, T/C (second compound 30 µM, first compound 0.949 µM): 28.9% | viability, T/C (second compound 30 µM, first compound 3 µM): 33.1%

Cc1nc(NC(=O)N2CCCC2C(N)=O)sc1-c1ccnc(C(C)(C)C(F)(F)F)c1 (stereo not drawn) + CC(C)NCC(C(=O)N1CCN(c2ncnc3c2C(C)CC3O)CC1)c1ccc(Cl)cc1
IC50 [1]: 7120 nM | IC50 [2]: 988 nM | IC50 [3]: 2690 nM | IC50 [4]: 2010 nM | IC50 [5]: < 31.6 nM | viability, T/C (second compound 0.3 µM, first compound 0.0316 µM): 95.3% | viability, T/C (second compound 0.3 µM, first compound 0.1 µM): 77% | viability, T/C (second compound 0.3 µM, first compound 0.316 µM): 79.2% | viability, T/C (second compound 0.3 µM, first compound 1 µM): 69.4% | viability, T/C (second compound 0.3 µM, first compound 3.16 µM): 60.1% | viability, T/C (second compound 0.3 µM, first compound 10 µM): 44.7% | viability, T/C (second compound 0.949 µM, first compound 0.0316 µM): 77.3% | viability, T/C (second compound 0.949 µM, first compound 0.1 µM): 78.8% | viability, T/C (second compound 0.949 µM, first compound 0.316 µM): 71.9% | viability, T/C (second compound 0.949 µM, first compound 1 µM): 49.4% | viability, T/C (second compound 0.949 µM, first compound 3.16 µM): 50.9% | viability, T/C (second compound 0.949 µM, first compound 10 µM): 40.9% | viability, T/C (second compound 3 µM, first compound 0.0316 µM): 63.7% | viability, T/C (second compound 3 µM, first compound 0.1 µM): 77.3% | viability, T/C (second compound 3 µM, first compound 0.316 µM): 67.5% | viability, T/C (second compound 3 µM, first compound 1 µM): 58% | viability, T/C (second compound 3 µM, first compound 3.16 µM): 46.3% | viability, T/C (second compound 3 µM, first compound 10 µM): 50.8% | viability, T/C (second compound 9.49 µM, first compound 0.0316 µM): 54.5% | viability, T/C (second compound 9.49 µM, first compound 0.1 µM): 64.5% | viability, T/C (second compound 9.49 µM, first compound 0.316 µM): 63% | viability, T/C (second compound 9.49 µM, first compound 1 µM): 55.8% | viability, T/C (second compound 9.49 µM, first compound 3.16 µM): 46% | viability, T/C (second compound 9.49 µM, first compound 10 µM): 39.8% | viability, T/C (second compound 30 µM, first compound 0.0316 µM): 39.1% | viability, T/C (second compound 30 µM, first compound 0.1 µM): 40.9% | viability, T/C (second compound 30 µM, first compound 0.316 µM): 34% | viability, T/C (second compound 30 µM, first compound 1 µM): 32.9% | viability, T/C (second compound 30 µM, first compound 3.16 µM): 27.4% | viability, T/C (second compound 30 µM, first compound 10 µM): 24.5%

CC(C)NCC(C(=O)N1CCN(c2ncnc3c2C(C)CC3O)CC1)c1ccc(Cl)cc1 (stereo not drawn)
viability, T/C (compound 0.949 µM): 84.7% [middle of 10 runs] | viability, T/C (compound 3 µM): 82.2% [middle of 10 runs] | IC50 (compound alone, run of 03/19/2020): > 30000 nM
